Test results from PubChem BioAssay (NCI).
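Values below derive from 48-hour exposures of cells grown in 96-well plates, with endpoints linearly interpolated between the two concentrations bracketing the appropriate inhibition level. The concentration for 50% growth inhibition is given as GI50. TGI denotes the concentration required for complete inhibition of growth.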

Experiments:
Test in all cases: growth of human tumour cells (NCI), 48 h
HS 578T breast = tested on: HS 578T breast
SF-268 CNS = tested on: SF-268 CNS
OVCAR-5 ovarian = tested on: OVCAR-5 ovarian
OVCAR-8 ovarian = tested on: OVCAR-8 ovarian
TK-10 renal = tested on: TK-10 renal
EKVX NSCLC = tested on: EKVX NSCLC
A498 renal = tested on: A498 renal
MOLT-4 leukemia = tested on: MOLT-4 leukemia
UACC-62 melanoma = tested on: UACC-62 melanoma
RPMI-8226 leukemia = tested on: RPMI-8226 leukemia
IGROV1 ovarian = tested on: IGROV1 ovarian
SR leukemia = tested on: SR leukemia
LOX IMVI melanoma = tested on: LOX IMVI melanoma
CAKI-1 renal = tested on: CAKI-1 renal
HCT-15 colon = tested on: HCT-15 colon
NCI-H226 lung = tested on: NCI-H226 lung
KM12 colon = tested on: KM12 colon
UO-31 renal = tested on: UO-31 renal
MALME-3M melanoma = tested on: MALME-3M melanoma
SK-MEL-2 melanoma = tested on: SK-MEL-2 melanoma
NCI-H522 lung = tested on: NCI-H522 lung
SF-295 CNS = tested on: SF-295 CNS
HOP-92 NSCLC = tested on: HOP-92 NSCLC
RXF 393 renal = tested on: RXF 393 renal
COLO 205 colon = tested on: COLO 205 colon
HCC-2998 colon = tested on: HCC-2998 colon
U251 CNS = tested on: U251 CNS
SK-MEL-5 melanoma = tested on: SK-MEL-5 melanoma
SF-539 CNS = tested on: SF-539 CNS
OVCAR-4 ovarian = tested on: OVCAR-4 ovarian

SMILES: O=C(NO)c1ccc(CNc2nc(-c3ccccc3)c3ccccc3n2)cc1
- TGI (HS 578T breast): > 28 µM
- GI50 (SF-268 CNS): 3.57 µM
- TGI (SF-268 CNS): 15.2 µM
- GI50 (OVCAR-5 ovarian): 1.55 µM
- TGI (OVCAR-5 ovarian): 4.87 µM
- GI50 (OVCAR-8 ovarian): 2.65 µM
- TGI (OVCAR-8 ovarian): > 12.4 µM
- GI50 (TK-10 renal): 2.12 µM
- TGI (TK-10 renal): > 19.8 µM
- GI50 (EKVX NSCLC): 3.59 µM
- TGI (EKVX NSCLC): > 17 µM
- GI50 (A498 renal): 1.68 µM
- TGI (A498 renal): 5.45 µM
- GI50 (MOLT-4 leukemia): 3.01 µM
- TGI (MOLT-4 leukemia): > 28 µM
- GI50 (UACC-62 melanoma): 1.34 µM
- TGI (UACC-62 melanoma): 3.16 µM
- GI50 (RPMI-8226 leukemia): 2.36 µM
- TGI (RPMI-8226 leukemia): > 28 µM
- GI50 (IGROV1 ovarian): 2.29 µM
- TGI (IGROV1 ovarian): 6.96 µM
- GI50 (SR leukemia): > 18.1 µM
- TGI (SR leukemia): > 28 µM
- GI50 (LOX IMVI melanoma): 2.08 µM
- TGI (LOX IMVI melanoma): 5.35 µM
- GI50 (CAKI-1 renal): 2.5 µM
- TGI (CAKI-1 renal): 8.52 µM
- GI50 (HCT-15 colon): 2.85 µM
- TGI (HCT-15 colon): 9.1 µM
- GI50 (NCI-H226 lung): 2.67 µM
- TGI (NCI-H226 lung): 14.6 µM
- GI50 (KM12 colon): 3.69 µM
- TGI (KM12 colon): > 12.5 µM
- GI50 (UO-31 renal): 1.99 µM
- TGI (UO-31 renal): 6.71 µM
- GI50 (MALME-3M melanoma): 1.36 µM
- TGI (MALME-3M melanoma): 4.72 µM
- GI50 (SK-MEL-2 melanoma): 1.42 µM
- TGI (SK-MEL-2 melanoma): 7.54 µM
- GI50 (NCI-H522 lung): 1.85 µM
- TGI (NCI-H522 lung): 8.25 µM
- GI50 (SF-295 CNS): 1.84 µM
- TGI (SF-295 CNS): 4.69 µM
- GI50 (HOP-92 NSCLC): 1.95 µM
- TGI (HOP-92 NSCLC): 6.6 µM
- GI50 (RXF 393 renal): 1.23 µM
- TGI (RXF 393 renal): 3.58 µM
- GI50 (COLO 205 colon): 1.69 µM
- TGI (COLO 205 colon): 3.81 µM
- GI50 (HCC-2998 colon): 1.82 µM
- TGI (HCC-2998 colon): 5.63 µM
- GI50 (U251 CNS): 2.37 µM
- TGI (U251 CNS): 8.78 µM
- GI50 (SK-MEL-5 melanoma): 1.62 µM
- TGI (SK-MEL-5 melanoma): 3.32 µM
- GI50 (SF-539 CNS): 2.77 µM
- TGI (SF-539 CNS): > 11.3 µM
- GI50 (OVCAR-4 ovarian): 5.4 µM
- TGI (OVCAR-4 ovarian): > 20.6 µM
